How the values were obtained:
Type in all cases: cell-based
[1] = test system: human distal colonic cultures; assay: Seeding media comparison in human distal colonic monolayer cultures (TEER, RNA profile); details: thiazovivin substituted for Y-27632 in the seeding media (WENRAT)
Method: Organoids were typically grown for 7-12 days before being used to plate monolayer cultures. Organoid cultures embedded in Matrigel were broken apart in growth media and pooled in a 15 mL conical tube. The cells were centrifuged at 600×g for 3 minutes and resuspended in TrypLE Express and placed in a water bath at 37° C. for 3 minutes. The cells were then removed and pipetted up and down for 7 minutes. BM was added to quench the reaction, and the cell suspension was centrifuged at 600×g for 3 minutes, resuspended in BM, and counted.
Media conditions used for murine colon growth and differentiation were optimized for human distal colon cultures using the water-absorption phenotype characteristic of this segment. The effects of seeding and differentiation media alterations on human distal colon cultures were determined by comparing two seeding medias (WENRAT or WENRNicAST) and three differentiation medias (WENR, ENRA, and ENR). […] Murine colonic growth media (WENR) was altered by removing Wnt3a (W) to generated ENR media, or by removing Wnt3a (W) and adding A83-01 (A) (ENRA). Removal of Wnt3a and addition of A83-01 was necessary for proper differentiation of water-absorbing cultures (FIG. 9B and FIG. 8). […] However, the inclusion of Nic and SB202190 in the WENRNicAST seeding media further suppressed differentiation of secretory cells in human colonic cultures (FIG. 10). […]

[2] = test system: K^+ absorption in mouse distal colonic cultures; assay: Mouse distal colon K+ transport screening assay
Method: Ion transport was determined by sampling the apical and basolateral chambers of the Transwell and analyzing these samples on an ion chromatography system (Thermo Fisher ICS-3000 or ICS-5000+) coupled with conductivity detectors. Chromatographic separation of cations was performed using an IonPac CS12A (Dionex) 2×250 mm analytical column with an isocratic elution using 25 mM methanesulfonic acid. Chromatographic separation of anions was performed using an IonPac AS18 (Dionex) 2×250 mm analytical column with an isocratic elution using 35 mM potassium hydroxide. Concentrations were calculated relative to a standard curve for each analyte ion based on retention time and peak area.
An assay was established to measure K^+ transport in mouse distal colonic cultures. Mouse distal colonic monolayer cultures were prepared in 96-well Transwells according to protocol and were used for assay on day 6, 7, or 8 depending on the TEER value of the culture and its water-absorption phenotype. Wells with a TEER value below 450 Ω·cm^2 were not used for assay. […]
To start the assay, 80 μL of apical media was added to triplicate wells per compound and 130 μL of basolateral media was added to the basolateral compartment. […] K^+ and rubidium ion concentrations were determined using ion chromatography. […]

[3] = test system: mouse duodenal, jejunal, and ileal cultures; assay: Differentiation of mouse small intestinal monolayer cultures (global gene expression PCC versus tissue, TEER)
Method: Approximately 1 μg of the entire isolated RNA was used to prepare each RNA sequencing library. RNA libraries were prepared using the TruSeq Stranded mRNA library preparation kit (Illumina). Most sequencing data were obtained using a NextSeq500 sequencer (Illumina) (2×75 bp, ˜ 30-40 million reads per sample) and some sequencing was performed using a HiSeq sequencer (Illumina) (2×125 bp, ˜ 25-30 million reads per sample). Transcript counts were obtained using the RNA Express application (RNA-Seq reads aligned with the STAR aligner) on the Illumina BaseSpace website.
Pearson correlation coefficients were determined in Microsoft Excel using the Pearson function comparing the transcript count correlation for all genes between two data sets.
On day 2, fresh W2.5ENRY was added to the cultures, and was replaced on day 4. Confluence of the culture was assessed by measuring the TEER. […]
Therefore, global gene expression by RNA sequencing was obtained for 36 culture conditions, taken 4, 6, and 8 days after seeding the cultures, and compared with the gene expression profiles of mouse jejunal villi and crypts. To simplify analysis and to account for changes in global gene expression rather than relying on a handful of marker genes, the Pearson correlation coefficient (PCC) was calculated for the relationship between the gene expression profiles of cultured cells and of mouse jejunal villus cells. […]

**Q.** How did the “TEER of human colonic cultures” value [1] turn out when `O=C(NCc1ccccc1)c1csc(Nc2ccncn2)n1` [thiazovivin] was run?
**A.** higher TEER values

**Q.** And the secretory cell differentiation [1]?
**A.** some suppression of secretory cell differentiation

**Q.** With `[O]=[V]([O-])([O-])[O-]` [vanadate] as the molecule, how does the “block of K^+ absorption” value ([2]; 200 μM vanadate, mouse distal colonic cultures) read?
**A.** block K^+ absorption completely

**Q.** What about the “Inhibition of K^+ absorption normalized to the mean value of vanadate controls (mean±SD)” value ([2]; vanadate controls, 200 μM, value of 1 = inhibition equivalent to vanadate) of the same molecule?
**A.** 1.00±0.15

B1: BMP 4: mouse BMP-4 (Peprotech), bone morphogenetic protein used as differentiation promoting factor (protein, UniProt P21275 293-408, looked up)
Bone morphogenetic protein 4: SPKHHPQRSRKKNKNCRRHSLYVDFSDVGWNDWIVAPPGYQAFYCHGDCPFPLADHLNSTNHAIVQTLVNSVNSSIPKACCVPTELSAISMLYLDEYDKVVLKNYQEMVVEGCGCR
**Q.** Which “correlation of gene expression of cultures with tissues in the jejunum and ileum (PCC)” value ([3]; 300 ng/mL, dose titration of individual BMPs) does the source give for B1 here?
**A.** strong correlations of gene expression

**Q.** And the “effectiveness at differentiating mouse duodenal, jejunal, and ileal cultures” value ([3]; compared with the BMP mixture (BMP 2, 4, and 7))?
**A.** as effective as the BMP mixture

Reference: patent US20230313146A1, “INTESTINAL EPITHELIAL CELL CULTURES” (ARDELYX, INC., priority 2017, published 2023)
